Measured values: article doi:10.1101/2020.02.10.936898v1 (biorxiv, 2020)

Biological target: SARS-CoV M^pro (Severe acute respiratory syndrome-related coronavirus, UniProt P0C6X7)
Assay: biochemical
Type: biochemical

SMILES | IC50
O=C(/C=C/c1ccccc1)N[C@@H](Cc1ccccc1)C(=O)N[C@@H](C[C@@H]1CCNC1=O)C(=O)C(=O)NCc1ccccc1 [11a, (S)-N-benzyl-3-((S)-2-cinnamamido-3-phenylpropanamido)-2-oxo-4-((S)-2-oxopyrrolidin-3-yl)butanamide] | 1950 ± 240 nM
CC(C)(C)OC(=O)N[C@@H](C[C@@H]1CCNC1=O)C(=O)C(=O)NCc1ccccc1 [11f, tert-Butyl ((S)-4-(benzylamino)-3,4-dioxo-1-((S)-2-oxopyrrolidin-3-yl)butan-2-yl)carbamate] | > 50000 nM
O=C(/C=C/c1ccccc1)N[C@@H](Cc1ccc(F)cc1)C(=O)N[C@@H](C[C@@H]1CCNC1=O)C(=O)C(=O)NCc1ccccc1 [11m, (S)-N-benzyl-3-((S)-2-cinnamamido-3-(4-fluorophenyl)propanamido)-2-oxo-4-((S)-2-oxopyrrolidin-3-yl)butanamide] | > 50000 nM
CC(C)C[C@H](NC(=O)/C=C/c1ccccc1)C(=O)N[C@@H](C[C@@H]1CCNC1=O)C(=O)C(=O)NCc1ccccc1 [11n, (S)-N-((S)-4-(benzylamino)-3,4-dioxo-1-((S)-2-oxopyrrolidin-3-yl)butan-2-yl)-2-cinnamamido-4-methylpentanamide] | 330 ± 40 nM
CCCC[C@H](NC(=O)/C=C/c1ccccc1)C(=O)N[C@@H](C[C@@H]1CCNC1=O)C(=O)C(=O)NCc1ccccc1 [11o, (S)-N-((S)-4-(benzylamino)-3,4-dioxo-1-((S)-2-oxopyrrolidin-3-yl)butan-2-yl)-2-cinnamamidohexanamide] | 8500 ± 3710 nM
C#CC[C@H](NC(=O)/C=C/c1ccccc1)C(=O)N[C@@H](C[C@@H]1CCNC1=O)C(=O)C(=O)NCc1ccccc1 [11p, (S)-N-((S)-4-(benzylamino)-3,4-dioxo-1-((S)-2-oxopyrrolidin-3-yl)butan-2-yl)-2-cinnamamidopent-4-ynamide] | 10700 ± 7340 nM
O=C(/C=C/c1ccccc1)N[C@H](C(=O)N[C@@H](C[C@@H]1CCNC1=O)C(=O)C(=O)NCc1ccccc1)C1CC1 [11q, (S)-N-benzyl-3-((S)-2-cinnamamido-2-cyclopropylacetamido)-2-oxo-4-((S)-2-oxopyrrolidin-3-yl)butanamide] | 6270 ± 2870 nM
O=C(/C=C/c1ccccc1)N[C@@H](CC1CCCCC1)C(=O)N[C@@H](C[C@@H]1CCNC1=O)C(=O)C(=O)NCc1ccccc1 [11r, (S)-N-benzyl-3-((S)-2-cinnamamido-3-cyclohexylpropanamido)-2-oxo-4-((S)-2-oxopyrrolidin-3-yl)butanamide] | 710 ± 360 nM
O=C(/C=C/c1ccccc1)N[C@@H](CC1CC1)C(=O)N[C@@H](C[C@@H]1CCNC1=O)C(=O)C(=O)NCc1ccccc1 [11s, (S)-N-benzyl-3-((S)-2-cinnamamido-3-cyclopropylpropanamido)-2-oxo-4-((S)-2-oxopyrrolidin-3-yl)butanamide] | 240 ± 80 nM
O=C(/C=C/c1ccccc1)N[C@@H](CC1CCC1)C(=O)N[C@@H](C[C@@H]1CCNC1=O)C(=O)C(=O)NCc1ccccc1 [11t, (S)-N-benzyl-3-((S)-2-cinnamamido-3-cyclobutylpropanamido)-2-oxo-4-((S)-2-oxopyrrolidin-3-yl)butanamide] | 1440 ± 400 nM
O=C(/C=C/c1ccccc1)N[C@@H](CC1CCCC1)C(=O)N[C@@H](C[C@@H]1CCNC1=O)C(=O)C(=O)NCc1ccccc1 [11u, (S)-N-benzyl-3-((S)-2-cinnamamido-3-cyclopentylpropanamido)-2-oxo-4-((S)-2-oxopyrrolidin-3-yl)butanamide] | 1270 ± 340 nM
